What was measured:
Format in all cases: in vivo
Conditions in all cases: 250 g/ha, evaluated after 13 days, five-point scale
[1] = test system: Amaranthus retoflexus (AMARE); experiment: Post-emergence herbicidal glasshouse test
Experimental: (§1) Seeds of a variety of test species are sown in standard soil in pots Amaranthus retoflexus (AMARE), Echinochloa crus-galli (ECHCG), Setaria faberi (SETFA)). After cultivation for one day (pre-emergence) or after 8 days cultivation (post-emergence) under controlled conditions in a glasshouse (at 24/16° C., day/night; 14 hours light; 65% humidity), the plants are sprayed with an aqueous spray solution derived from the formulation of the technical active ingredient in acetone/water (50:50) solution containing 0.5% Tween 20 (polyoxyethelyene sorbitan monolaurate, CAS RN 9005-64-5). Compounds are applied at 250 g/ha unless otherwise stated. The test plants are then grown in a glasshouse under controlled conditions in a glasshouse (at 24/16° C., day/night; 14 hours light; 65% humidity) and watered twice daily. After 13 days for pre and post-emergence, the test is evaluated for the percentage damage caused to the plant. The biological activities are shown in the following table on a five-point scale (5=81-100%; 4=61-80%; 3=41-60%; 2=21-40%; 1=0-20%).

[2] = test system: Echinochloa crus-galli (ECHCG); experiment: Post-emergence herbicidal glasshouse test
Experimental: as §1

[3] = test system: AMAPA; experiment: Post-emergence herbicidal glasshouse test
Experimental: [Worded in the source for another organism; this organism is reported under the same test.] as §1

[4] = test system: IPOHE; experiment: Post-emergence herbicidal glasshouse test
Experimental: as §1

[5] = test system: Amaranthus retoflexus (AMARE); experiment: Pre-emergence herbicidal glasshouse test
Experimental: as §1

[6] = test system: Echinochloa crus-galli (ECHCG); experiment: Pre-emergence herbicidal glasshouse test
Experimental: as §1

[7] = test system: AMAPA; experiment: Pre-emergence herbicidal glasshouse test
Experimental: [Worded in the source for another organism; this organism is reported under the same test.] as §1

[8] = test system: IPOHE; experiment: Pre-emergence herbicidal glasshouse test
Experimental: as §1

SMILES	percentage damage caused to the plant, AMARE [1]	percentage damage caused to the plant, ECHCG [2]	percentage damage caused to the plant, AMAPA [3]	percentage damage caused to the plant, IPOHE [4]	percentage damage caused to the plant, AMARE [5]	percentage damage caused to the plant, ECHCG [6]	percentage damage caused to the plant, AMAPA [7]	percentage damage caused to the plant, IPOHE [8]
FC(F)(F)c1cn(Cc2ncc(Cl)cn2)c(-c2cc(Cl)cs2)n1 [Compound 1.010]	4 (4=61-80%)	4 (4=61-80%)	4 (4=61-80%)	4 (4=61-80%)	5 (5=81-100%)	5 (5=81-100%)	5 (5=81-100%)	4 (4=61-80%)
Cc1ncsc1-c1nc(C(F)(F)F)cn1Cc1ncc(Cl)cn1 [Compound 1.042]	5 (5=81-100%)	4 (4=61-80%)	5 (5=81-100%)	4 (4=61-80%)	5 (5=81-100%)	5 (5=81-100%)	5 (5=81-100%)	5 (5=81-100%)
FC(F)c1cn(Cc2ncc(Cl)cn2)c(-c2cnc(Cl)s2)n1 [Compound 1.071, 2-chloro-5-[1-[(5-chloropyrimidin-2-yl)methyl]-4-(difluoromethyl)imidazol-2-yl]thiazole]	5 (5=81-100%)	4 (4=61-80%)	4 (4=61-80%)	2 (2=21-40%)	5 (5=81-100%)	4 (4=61-80%)	5 (5=81-100%)	5 (5=81-100%)
Cn1cc(Cl)c(-c2nc(C(F)(F)F)cn2Cc2ncc(Cl)cn2)n1 [Compound 1.043]	1 (1=0-20%)	1 (1=0-20%)	1 (1=0-20%)	1 (1=0-20%)	1 (1=0-20%)	1 (1=0-20%)	1 (1=0-20%)	1 (1=0-20%)
N#Cc1ccc(Cn2cc(C(F)(F)F)nc2-c2ccc(Cl)s2)nc1 [Compound 1.049]	5 (5=81-100%)	4 (4=61-80%)	5 (5=81-100%)	4 (4=61-80%)	5 (5=81-100%)	4 (4=61-80%)	5 (5=81-100%)	5 (5=81-100%)
FC(F)(F)c1cn(Cc2ncc(Cl)cn2)c(-c2ncco2)n1 [Compound 1.019]	1 (1=0-20%)	1 (1=0-20%)	1 (1=0-20%)	1 (1=0-20%)	1 (1=0-20%)	1 (1=0-20%)	1 (1=0-20%)	1 (1=0-20%)
FC(F)(F)c1cn(Cc2ncc(Cl)cn2)c(-c2sccc2Br)n1 [Compound 1.044]	2 (2=21-40%)	1 (1=0-20%)	2 (2=21-40%)	3 (3=41-60%)	5 (5=81-100%)	1 (1=0-20%)	5 (5=81-100%)	1 (1=0-20%)
FC(F)(F)c1cn(Cc2ncc(Cl)cn2)c(-c2cnco2)n1 [Compound 1.020]	3 (3=41-60%)	1 (1=0-20%)	2 (2=21-40%)	4 (4=61-80%)	5 (5=81-100%)	1 (1=0-20%)	3 (3=41-60%)	4 (4=61-80%)
N#Cc1ccc(-c2nc(C(F)(F)F)cn2Cc2ncc(Cl)cn2)s1 [Compound 1.027]	5 (5=81-100%)	5 (5=81-100%)	5 (5=81-100%)	4 (4=61-80%)	5 (5=81-100%)	5 (5=81-100%)	5 (5=81-100%)	5 (5=81-100%)
FC(F)(F)c1cn(Cc2ncc(Cl)cn2)c(-c2csc(Cl)c2)n1 [Compound 1.021]	4 (4=61-80%)	4 (4=61-80%)	5 (5=81-100%)	4 (4=61-80%)	5 (5=81-100%)	5 (5=81-100%)	5 (5=81-100%)	4 (4=61-80%)
FC(F)(F)c1cn(Cc2ncc(Cl)cn2)c(-c2sc(Cl)nc2Cl)n1 [Compound 1.046]	2 (2=21-40%)	1 (1=0-20%)	2 (2=21-40%)	1 (1=0-20%)	1 (1=0-20%)	1 (1=0-20%)	4 (4=61-80%)	1 (1=0-20%)
CS(=O)(=O)c1ccc(-c2nc(C(F)(F)F)cn2Cc2ncc(Cl)cn2)s1 [Compound 1.003]	4 (4=61-80%)	5 (5=81-100%)	4 (4=61-80%)	4 (4=61-80%)	5 (5=81-100%)	5 (5=81-100%)	5 (5=81-100%)	5 (5=81-100%)
FC(F)(F)c1cn(Cc2ncc(Cl)cn2)c(-c2scnc2Cl)n1 [Compound 1.045]	4 (4=61-80%)	2 (2=21-40%)	4 (4=61-80%)	4 (4=61-80%)	5 (5=81-100%)	1 (1=0-20%)	5 (5=81-100%)	5 (5=81-100%)
FC(F)(F)c1cn(Cc2ccc(Cl)cn2)c(-c2ccc(Cl)s2)n1 [Compound 1.047]	5 (5=81-100%)	4 (4=61-80%)	5 (5=81-100%)	4 (4=61-80%)	5 (5=81-100%)	4 (4=61-80%)	5 (5=81-100%)	2 (2=21-40%)
Cc1nc(-c2nc(C(F)(F)F)cn2Cc2ncc(Cl)cn2)co1 [Compound 1.018]	2 (2=21-40%)	1 (1=0-20%)	1 (1=0-20%)	2 (2=21-40%)	2 (2=21-40%)	1 (1=0-20%)	–	1 (1=0-20%)
FC(F)(F)c1cn(Cc2ncc(Cl)cn2)c(-c2nccs2)n1 [Compound 1.022]	1 (1=0-20%)	1 (1=0-20%)	1 (1=0-20%)	1 (1=0-20%)	–	1 (1=0-20%)	1 (1=0-20%)	1 (1=0-20%)
FC(F)Oc1cccc(Cn2cc(C(F)(F)F)nc2-c2ccc(Cl)s2)n1 [Compound 1.048]	1 (1=0-20%)	1 (1=0-20%)	1 (1=0-20%)	1 (1=0-20%)	1 (1=0-20%)	1 (1=0-20%)	1 (1=0-20%)	–
FC(F)(F)c1cn(Cc2ncc(Cl)cn2)c(-c2cscn2)n1 [Compound 1.023]	1 (1=0-20%)	1 (1=0-20%)	1 (1=0-20%)	2 (2=21-40%)	–	1 (1=0-20%)	1 (1=0-20%)	1 (1=0-20%)
